Experimental data taken from US11498899B2, “Nitrone herbicides” (FMC Corporation, priority 2016, dated 2022).

Key:
[1] = system: ducksalad (Heteranthera limosa); test: Test B flooded paddy test, visual rating 0-100; conditions: Flood, 250 g ai/ha, applied to paddy water, rated after 13 to 15 days
[2] = system: ragweed (common ragweed, Ambrosia elatior); test: Test A preemergence, visual injury rating 0-100; format: in vivo
kochia (Kochia scoparia) [3] = test: Test A preemergence, visual injury rating 0-100; format: in vivo
[4] = system: pigweed (Amaranthus retroflexus); test: Test A preemergence, visual injury rating 0-100; format: in vivo
[5] = system: foxtail, giant (giant foxtail, Setaria faberii); test: Test A preemergence, visual injury rating 0-100; format: in vivo
[6] = system: ryegrass, Italian (Italian ryegrass, Lolium multiflorum); test: Test A preemergence, visual injury rating 0-100; format: in vivo
rice (Oryza sativa) = test: Test B flooded paddy test, visual rating 0-100 (0 no effect, 100 complete control); conditions: Flood, 250 g ai/ha, applied to paddy water, rated after 13 to 15 days
[7] = system: barnyardgrass (Echinochloa crus-galli); test: Test B flooded paddy test, visual rating 0-100; conditions: Flood, 250 g ai/ha, applied to paddy water, rated after 13 to 15 days
[8] = system: ragweed (common ragweed, Ambrosia elatior); test: Test A postemergence, visual injury rating 0-100; format: in vivo; conditions: 0 to 100 scale
Text: (§1) Seeds of plant species selected from barnyardgrass (Echinochloa crus-galli), kochia (Kochia scoparia), ragweed (common ragweed, Ambrosia elatior), ryegrass, Italian (Italian ryegrass, Lolium multiflorum), foxtail, giant (giant foxtail, Setaria faberii), foxtail, green (green foxtail, Setaria viridis), and pigweed (Amaranthus retroflexus) were planted into a blend of loam soil and sand and treated preemergence with a directed soil spray using test chemicals formulated in a non-phytotoxic solvent mixture which included a surfactant.
(§2) At the same time, plants selected from these weed species and also wheat (Triticum aestivum), corn (Zea mays), blackgrass (Alopecurus myosuroides), and galium (catchweed bedstraw, Galium aparine) were planted in pots containing the same blend of loam soil and sand and treated with postemergence applications of test chemicals formulated in the same manner. Plants ranged in height from 2 to 10 cm and were in the one- to two-leaf stage for the postemergence treatment. Treated plants and untreated controls were maintained in a greenhouse for approximately 10 days, after which time all treated plants were compared to untreated controls and visually evaluated for injury. […] A dash (-) response means no test result.

corn (Zea mays) = test: Test A postemergence, visual injury rating 0-100; format: in vivo; conditions: 0 to 100 scale
Text: as §1, §2

kochia (Kochia scoparia) [9] = test: Test A postemergence, visual injury rating 0-100; format: in vivo; conditions: 0 to 100 scale
Text: as §1, §2

[10] = system: barnyardgrass (Echinochloa crus-galli); test: Test A postemergence, visual injury rating 0-100; format: in vivo; conditions: 0 to 100 scale
Text: as §1, §2

[11] = system: pigweed (Amaranthus retroflexus); test: Test A postemergence, visual injury rating 0-100; format: in vivo; conditions: 0 to 100 scale
Text: as §1, §2

[12] = system: foxtail, giant (giant foxtail, Setaria faberii); test: Test A postemergence, visual injury rating 0-100; format: in vivo; conditions: 0 to 100 scale
Text: as §1, §2

[13] = system: ryegrass, Italian (Italian ryegrass, Lolium multiflorum); test: Test A postemergence, visual injury rating 0-100; format: in vivo; conditions: 0 to 100 scale
Text: as §1, §2

[14] = system: blackgrass (Alopecurus myosuroides); test: Test A postemergence, visual injury rating 0-100; format: in vivo; conditions: 0 to 100 scale
Text: as §1, §2

[15] = system: wheat (Triticum aestivum); test: Test A postemergence, visual injury rating 0-100; format: in vivo; conditions: 0 to 100 scale
Text: as §1, §2

[16] = system: galium (catchweed bedstraw, Galium aparine); test: Test A postemergence, visual injury rating 0-100; format: in vivo; conditions: 0 to 100 scale
Text: as §1, §2

[17] = system: barnyardgrass (Echinochloa crus-galli); test: Test A preemergence, visual injury rating 0-100 (0 no effect, 100 complete control); format: in vivo
[18] = 31 g ai/ha, 0 to 100 scale (0 no effect, 100 complete control), approx. 10 days

Compound | Ducksalad plant response rating (0 to 100 scale) [1] | Ragweed plant response rating (0 to 100 scale) ([2]; 125 g ai/ha) | Kochia plant response rating (0 to 100 scale) (kochia (Kochia scoparia) [3]; 125 g ai/ha) | Pigweed plant response rating (0 to 100 scale) ([4]; 125 g ai/ha) | Foxtail, Giant plant response rating (0 to 100 scale) ([5]; 125 g ai/ha) | Ryegrass, Italian plant response rating (0 to 100 scale) ([6]; 125 g ai/ha) | Rice plant response rating (0 to 100 scale) (rice (Oryza sativa)) | Barnyardgrass plant response rating (0 to 100 scale) [7] | Ragweed plant response rating ([8]; 125 g ai/ha) | Corn plant response rating (corn (Zea mays); 125 g ai/ha) | Kochia plant response rating (kochia (Kochia scoparia) [9]; 125 g ai/ha) | Barnyardgrass plant response rating ([10]; 125 g ai/ha) | Pigweed plant response rating ([11]; 125 g ai/ha) | Foxtail, Giant plant response rating ([12]; 125 g ai/ha) | Ryegrass, Italian plant response rating ([13]; 125 g ai/ha) | Blackgrass plant response rating ([14]; 125 g ai/ha) | Wheat plant response rating ([15]; 125 g ai/ha) | Galium plant response rating ([16]; 125 g ai/ha) | Barnyardgrass plant response rating (0 to 100 scale) ([17]; 125 g ai/ha) | further results
CC1=[N+]([O-])C(C(=O)Nc2cccc(F)c2F)C(c2cc(F)cc(Oc3ccc(Cl)nc3)c2)C1 (racemic) [Compound 50] | 0 | 0 | 30 | 0 | 90 | 0 | 0 | 0 | 0 | 0 | 0 | 0 | 0 | 10 | 0 | 40 | 0 | 0 | 50 | Ragweed plant response rating (0 to 100 scale) ([2]; 500 g ai/ha): 0; Kochia plant response rating (0 to 100 scale) (kochia (Kochia scoparia) [3]; 500 g ai/ha): 70; Pigweed plant response rating (0 to 100 scale) ([4]; 500 g ai/ha): 40; Foxtail, Giant plant response rating (0 to 100 scale) ([5]; 500 g ai/ha): 90; Ryegrass, Italian plant response rating (0 to 100 scale) ([6]; 500 g ai/ha): 80; Ragweed plant response rating ([8]; 500 g ai/ha): 40; Corn plant response rating (corn (Zea mays); 500 g ai/ha): 40; Kochia plant response rating (kochia (Kochia scoparia) [9]; 500 g ai/ha): 50; Barnyardgrass plant response rating ([10]; 500 g ai/ha): 50; Pigweed plant response rating ([11]; 500 g ai/ha): 60; Foxtail, Giant plant response rating ([12]; 500 g ai/ha): 50; Ryegrass, Italian plant response rating ([13]; 500 g ai/ha): 20; Blackgrass plant response rating ([14]; 500 g ai/ha): 70; Wheat plant response rating ([15]; 500 g ai/ha): 0; Galium plant response rating ([16]; 500 g ai/ha): 30; Barnyardgrass plant response rating (0 to 100 scale) ([17]; 500 g ai/ha): 90
CC1=[N+]([O-])C(C(=O)Nc2cccc(F)c2F)C(c2ccc(F)c(Oc3ccc(Cl)nc3)c2)C1 (racemic) [Compound 51] | 0 | 0 | 0 | 0 | 30 | 0 | 0 | 0 | 60 | 0 | 20 | 0 | 0 | 0 | 0 | 70 | 10 | 70 | 40 | Ragweed plant response rating [2, 18]: 0; Kochia plant response rating (kochia (Kochia scoparia) [3]; [18]): 0; Pigweed plant response rating [4, 18]: 0; Foxtail, Giant plant response rating [5, 18]: 0; Ryegrass, Italian plant response rating [6, 18]: 0; Ragweed plant response rating ([8]; 31 g ai/ha): 0; Corn plant response rating (corn (Zea mays); 31 g ai/ha): 0; Kochia plant response rating (kochia (Kochia scoparia) [9]; 31 g ai/ha): 0; Barnyardgrass plant response rating ([10]; 31 g ai/ha): 0; Pigweed plant response rating ([11]; 31 g ai/ha): 0; Foxtail, Giant plant response rating ([12]; 31 g ai/ha): 0; Ryegrass, Italian plant response rating ([13]; 31 g ai/ha): 0; Blackgrass plant response rating ([14]; 31 g ai/ha): 0; Wheat plant response rating ([15]; 31 g ai/ha): 0; Galium plant response rating ([16]; 31 g ai/ha): 60; Barnyardgrass plant response rating [17, 18]: 0
